The text below walks through data of patent US8642626B2, “Ethinyl-pyrazole derivative” (Taisho Pharmaceutical Co., Ltd., priority 2010, dated 2014).

The structures appear in SMILES notation.

T1 sequence (P31421 19-872): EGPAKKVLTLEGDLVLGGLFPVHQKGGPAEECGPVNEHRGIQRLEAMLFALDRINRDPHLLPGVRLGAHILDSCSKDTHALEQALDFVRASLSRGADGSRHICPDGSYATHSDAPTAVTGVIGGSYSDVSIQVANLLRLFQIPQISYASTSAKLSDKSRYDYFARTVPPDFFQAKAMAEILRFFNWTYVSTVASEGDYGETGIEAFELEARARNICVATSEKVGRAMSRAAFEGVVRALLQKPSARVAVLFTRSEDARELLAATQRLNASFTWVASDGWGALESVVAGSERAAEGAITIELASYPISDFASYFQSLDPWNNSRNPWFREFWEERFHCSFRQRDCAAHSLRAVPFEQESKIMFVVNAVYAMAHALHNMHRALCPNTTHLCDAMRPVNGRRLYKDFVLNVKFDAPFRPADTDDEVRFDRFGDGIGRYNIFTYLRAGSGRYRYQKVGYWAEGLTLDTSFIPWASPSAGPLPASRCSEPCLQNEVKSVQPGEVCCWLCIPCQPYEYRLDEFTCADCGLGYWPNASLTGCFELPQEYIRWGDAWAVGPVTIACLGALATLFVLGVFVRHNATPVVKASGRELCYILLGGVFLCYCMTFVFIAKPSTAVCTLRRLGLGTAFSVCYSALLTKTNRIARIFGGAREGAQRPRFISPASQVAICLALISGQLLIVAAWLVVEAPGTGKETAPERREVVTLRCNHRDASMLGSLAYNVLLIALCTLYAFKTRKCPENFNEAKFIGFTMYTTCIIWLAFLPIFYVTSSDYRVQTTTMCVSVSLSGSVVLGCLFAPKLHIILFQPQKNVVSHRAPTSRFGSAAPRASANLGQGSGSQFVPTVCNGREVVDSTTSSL

One assay addresses T1, rat metabotropic glutamate receptor (mGlu2) (Rattus norvegicus, UniProt P31421).
T1 construct: expressed in transfected cells
The experiment in a line: [35S]GTPγS binding test (1), crude membrane fraction of CHO cells stably expressing rat mGlu2. It counts as biochemical. To be noted: inhibition of glutamic acid (20 μM)-stimulated specific [35S]GTPγS binding, rat mGlu2 CHO membranes. The method, then: [^35S]GTPγS Binding Test (1)
(Preparation of Crude Membrane Fraction of CHO Cells Stably Expressing the Rat Metabotropic Glutamate Receptor (mGlu2))
(§1) CHO cells stably expressing the rat mGlu2 were cultured in a 10% dialyzed fetal bovine serum-containing Dulbecco's Modified Eagle's Medium [1% proline, 50 units/mL penicillin, 50 μg/mL streptomycin, and 2 mM L-glutamine (to be added when used)] at 37° C. in 5% CO2. Confluent cells were washed with PBS(−) twice, and were then harvested with a cell scraper. Then, the cells were centrifuged at 4° C. at 1000 rpm for 5 minutes to collect. The obtained precipitate was suspended in a 20 mM HEPES buffer (pH 7.4), and then homogenized with a Teflon (registered trademark) homogenizer. The resultant was centrifuged at 4° C. at 48,000×g for 20 minutes to obtain a precipitate again. The obtained precipitate was washed twice by centrifugation, and was then homogenized with the above-mentioned buffer, so as to obtain a crude membrane fraction. The obtained crude membrane fraction was preserved at −80° C.
The frozen membrane fraction as prepared above was thawed when used, and it was then diluted with a binding test buffer (final concentration: 20 mM HEPES, 100 mM NaCl, 10 mM MgCl2, 8.4 μM GDP, 10 μg/mL saponin, and 0.1% BSA). The compound of the Example was added to a membrane fraction (10 μg protein/assay), and the obtained mixture was then incubated at 30° C. for 20 minutes. Thereafter, glutamic acid (final concentration: 20 μM; but it was 30 μM only in the compounds 1 and 40 of the Examples) and [^35S]GTPγS (final concentration: 0.15 nM) were added to the reaction mixture, and then incubated at 30° C. for 1 hour. After completion of the incubation, the reaction mixture was subjected to filtration over a Whatman GF/C filter that had previously been immersed in a 20 mM HEPES buffer (pH 7.4), and the filter was then washed three times with 300 μL of ice-cold 20 mM HEPES buffer (pH 7.4). A scintillation cocktail was added to the resulting filter, and membrane-bound radioactivity was then measured with a liquid scintillation counter.
The amount of [^35S]GTPγS bound in the case of carrying out the above described reaction in the absence of glutamic acid was defined as non-specific binding. The difference between such non-specific bound and the amount of [^35S]GTPγS bound in the presence of glutamic acid was defined as specific binding. Using non-linear analysis, a concentration-inhibition curve was produced. The concentration of the compound of each Example that caused 50% inhibition (IC50 value) of specific binding was determined from each concentration-inhibition curve.
A general note: Binding of GTPγS marks nucleotide exchange on a G protein.
With `Cn1ncc(C#Cc2cccc(S(N)(=O)=O)c2)c1CCc1cccc(C(F)(F)F)c1` [Example 94, 3-[(1-methyl-5-{2-[3-(trifluoromethyl)phenyl]ethyl}-1H-pyrazol-4-yl)ethynyl]benzenesulfonamide], the IC50 was determined as 18.2 nM.
Molecule `Cc1nn(C)c(COc2ccc(C(F)(F)F)cc2)c1C#Cc1cccc(S(N)(=O)=O)c1` [Example 81, 3-[(1,3-dimethyl-5-{[4-(trifluoromethyl)phenoxy]methyl}-1H-pyrazol-4-yl)ethynyl]benzenesulfonamide] gave an IC50 of 14.6 nM.
`Cn1ncc(C#Cc2cccc(S(N)(=O)=O)c2)c1CCOc1ccc(C(F)(F)F)cc1` [Example 106, 3-[(1-methyl-5-{2-[4-(trifluoromethyl)phenoxy]ethyl}-1H-pyrazol-4-yl)ethynyl]benzenesulfonamide]: the IC50 was 7.88 nM.
Same read-out and setting: the figure for `Cn1ncc(C#Cc2cccc(S(N)(=O)=O)c2)c1CNc1ccc(C(F)(F)F)cc1` [Example 98] is 42.8 nM.
As for `Cn1ncc(C#Cc2ccc(S(N)(=O)=O)cc2)c1-c1nc(-c2ccc(C(F)(F)F)cc2)no1` [Example 73, 4-[(1-methyl-5-{3-[4-(trifluoromethyl)phenyl]-1,2,4-oxadiazol-5-yl}-1H-pyrazol-4-yl)ethynyl]benzenesulfonamide], the IC50 turned out to be 2.1 nM.
On the same count and under the same terms, under `Cn1ncc(C#Cc2ccc(S(N)(=O)=O)cc2)c1-c1cnn(-c2ccc(C(F)(F)F)cc2)c1` [Example 64, 4-({2-methyl-1′-[4-(trifluoromethyl)phenyl]-1′H,2H-3,4′-bipyrazol-4-yl}ethynyl)benzenesulfonamide] stands 9.77 nM; under `Cn1ncc(C#Cc2ccc(S(N)(=O)=O)cc2)c1-c1ccc(C(F)(F)F)cn1` [Example 50, 4-({1-methyl-5-[5-(trifluoromethyl)pyridin-2-yl]-1H-pyrazol-4-yl}ethynyl)benzenesulfonamide], 76.4 nM.
The molecule `Cn1ncc(C#Cc2ccc(S(N)(=O)=O)cc2F)c1CCc1ccc(C(F)(F)F)cc1` [Example 83, 3-fluoro-4-[(1-methyl-5-{2-[4-(trifluoromethyl)phenyl]ethyl}-1H-pyrazol-4-yl)ethynyl]benzenesulfonamide] came in with a 50% inhibitory concentration (IC50) of 22 nM.
Turning to `Cn1ncc(C#Cc2cccc(S(N)(=O)=O)c2)c1COc1ccc(C#N)cc1` [Example 100, 3-({5-[(4-cyanophenoxy)methyl]-1-methyl-1H-pyrazol-4-yl}ethynyl)benzenesulfonamide], the IC50 turned out to be 61.8 nM.
The molecule `Cn1ncc(C#Cc2cccc(S(N)(=O)=O)c2)c1-c1cc(-c2ccc(C(F)(F)F)cc2)no1` [Example 87, 3-[(1-methyl-5-{3-[4-(trifluoromethyl)phenyl]-1,2-oxazol-5-yl}-1H-pyrazol-4-yl)ethynyl]benzenesulfonamide] registered an IC50 of 3.43 nM.
`Cn1ncc(C#Cc2ccc(S(N)(=O)=O)cc2)c1N1Cc2ccc(Cl)cc2C1` [Example 58, 4-{[5-(5-chloro-1,3-dihydro-2H-isoindol-2-yl)-1-methyl-1H-pyrazol-4-yl]ethynyl}benzenesulfonamide]: the IC50 was found to be 13.8 nM.
`Cn1ncc(C#Cc2cccc(S(N)(=O)=O)c2)c1OCc1ccc(C(F)(F)F)cc1` [Example 89, 3-[(1-methyl-5-{[4-(trifluoromethyl)benzyl]oxy}-1H-pyrazol-4-yl)ethynyl]benzenesulfonamide] gave an IC50 of 55.1 nM.
Same read-out and setting: the figure for `Cn1ncc(C#Cc2cccc(S(N)(=O)=O)c2)c1COc1ccc(C(F)(F)F)cc1` [Example 84, 3-[(1-methyl-5-{[4-(trifluoromethyl)phenoxy]methyl}-1H-pyrazol-4-yl)ethynyl]benzenesulfonamide] is 2.72 nM.

The assay is the same for the next values; noted with them: inhibition of glutamic acid (30 μM, only compounds 1 and 40)-stimulated specific [35S]GTPγS binding, rat mGlu2 CHO membranes.
Turning to `Cn1ncc(C#Cc2cccc(S(N)(=O)=O)c2)c1N1Cc2cc3ccccc3cc2C1` [Example 40, 3-{[5-(1,3-dihydro-2H-benzo[f]isoindol-2-yl)-1-methyl-1H-pyrazol-4-yl]ethynyl}benzenesulfonamide], the IC50 came to 24.2 nM.
Still for that read-out and setting: the figure for `CN(C)CCNS(=O)(=O)c1cccc(C#Cc2cnn(C)c2-c2ccc(C(F)(F)F)cc2)c1` [Example 1, N-[2-(dimethylamino)ethyl]-3-({1-methyl-5-[4-(trifluoromethyl)phenyl]-1H-pyrazol-4-yl}ethynyl)benzenesulfonamide] is 158 nM.

The target of a further assay is T2, human metabotropic glutamate receptor (mGlu2) (Homo sapiens, UniProt Q14416).
T2 construct: expressed in transfected cells
T2 sequence (Q14416 19-872): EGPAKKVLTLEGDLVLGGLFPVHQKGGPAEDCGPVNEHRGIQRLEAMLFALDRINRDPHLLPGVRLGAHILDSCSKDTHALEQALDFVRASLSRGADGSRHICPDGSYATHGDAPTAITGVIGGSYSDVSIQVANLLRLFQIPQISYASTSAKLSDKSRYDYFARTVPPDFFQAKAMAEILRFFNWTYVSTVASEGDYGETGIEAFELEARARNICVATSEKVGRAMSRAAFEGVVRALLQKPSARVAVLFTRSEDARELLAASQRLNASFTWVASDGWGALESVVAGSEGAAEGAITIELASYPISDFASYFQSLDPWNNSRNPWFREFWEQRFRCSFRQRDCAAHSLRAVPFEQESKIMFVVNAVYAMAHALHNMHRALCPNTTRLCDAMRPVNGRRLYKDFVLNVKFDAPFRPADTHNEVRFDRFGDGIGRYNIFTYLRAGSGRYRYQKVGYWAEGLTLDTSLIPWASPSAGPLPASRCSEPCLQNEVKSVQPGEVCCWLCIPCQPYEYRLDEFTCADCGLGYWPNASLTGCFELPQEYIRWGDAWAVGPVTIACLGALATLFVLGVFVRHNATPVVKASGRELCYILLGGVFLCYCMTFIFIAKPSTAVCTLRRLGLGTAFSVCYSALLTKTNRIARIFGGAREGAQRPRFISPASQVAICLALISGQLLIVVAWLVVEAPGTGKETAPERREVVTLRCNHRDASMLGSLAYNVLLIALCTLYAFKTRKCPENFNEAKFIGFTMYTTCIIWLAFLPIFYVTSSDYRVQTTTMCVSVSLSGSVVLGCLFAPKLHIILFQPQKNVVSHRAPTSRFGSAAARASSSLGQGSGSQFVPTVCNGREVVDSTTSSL
The experiment in a line: [35S]GTPγS binding test (2), crude membrane fraction of CHO cells stably expressing human mGlu2. It counts as biochemical. The conditions noted are these: inhibition of glutamic acid (20 μM)-stimulated specific [35S]GTPγS binding, human mGlu2 CHO membranes. The procedure:
[^35S]GTPγS Binding Test (2)
(Preparation of Crude Membrane Fraction of CHO Cells Stably Expressing the Human Metabotropic Glutamate Receptor (mGlu2))
as §1, with “human” for “rat”, “mGlu2 receptor” for “mGlu2”, “streptomycin, 400 μg/mL hygromycin B,” for “streptomycin,”, “The obtained crude membrane fraction was preserved at −80° C.” left out
The frozen membrane fraction as prepared above was thawed when used, and it was then diluted with a binding test buffer (final concentration: 20 mM HEPES, 100 mM NaCl, 10 mM MgCl2, 8.4 μM GDP, 10 μg/mL saponin, and 0.1% BSA). […] A scintillation cocktail was added to the resulting filter, and membrane-bound radioactivity was then measured with a liquid scintillation counter. […]
Turning to `Cn1ncc(C#Cc2ccc(S(N)(=O)=O)cc2)c1COc1ccc(F)cn1` [Example 108, 4-[(5-{[(5-fluoropyridin-2-yl)oxy]methyl}-1-methyl-1H-pyrazol-4-yl)ethynyl]benzenesulfonamide], the IC50 was 9.22 nM.
With `Cn1ncc(C#Cc2ccc(S(N)(=O)=O)cc2)c1COc1ccc(C(F)(F)F)cn1` [Example 109, 4-{[1-methyl-5-({[5-(trifluoromethyl)pyridin-2-yl]oxy}methyl)-1H-pyrazol-4-yl]ethynyl}benzenesulfonamide], the IC50 was found to be 1.22 nM.

In general, IC50 refers to the concentration needed to halve the response being measured.
